According to patent US20170157228A1, “Immunogenic Polypeptide Composed of HLA-B7 Restricted Tumor Antigen-Derived Optimized Cryptic Peptides, and Uses Thereof” (VAXON BIOTECH, priority 2014, published 2017):
“Also recorded” adds a separate entry of the source.

What was measured:
[1] = test system: HLA-B*0702 transgenic mice; assay: CTL induction in vivo in HLA-B*0702 transgenic mice, ex vivo IFNγ ELISpot of spleen T cells; details: for result versus the inverted dipeptide sequence, in terms of number of responding mice: dipeptide vaccination twice at 2 weeks interval, response against optimized and cognate native peptides; for mice responding to at least one native peptide / recognition of each native peptide in vaccinated mice: after two vaccinations with the polypeptide
Experimental: Transgenic Mice. The HLA-B7 H-2 class-I knockout mice were previously described (Rohrlich et al, 2003) and kindly provided by F. Lemonnier (Institut Pasteur, Paris, France).
CTL Induction in vivo in HLA-B*0702 Transgenic Mice. HLA-B*0702 transgenic mice were vaccinated subcutaneously at the base of the tail with 200 μg of optimized dipeptides or 400 μg of Vbx-016 in association with the HV core T13L helper (150 μg) helper peptide and emulsified in Incomplete Freund Adjuvant (IFA) or Montanide ISA51VG (Seppic, Castres, France) twice at two weeks interval.
Seven days after the last vaccination, spleens were removed and T cells were isolated by Ficoll centrifugation and tested ex vivo for the recognition of 10 μM of either the native or optimized peptides. Positive control was Concanavalin A and negative control was medium alone. All conditions were tested in quadriplicates. IFNγ producing T cells was quantified by ELISpot using the Diaclone Kit Murine IFNγ ELISpot.
An immune response was considered positive when there was 1) more than 10 spots difference/10^6 cells between the negative control and the tested peptide and 2) a statistically significant difference between these two groups with T Test (p<0.05).
Each dipeptide was used to vaccinate HLA-B*0702 transgenic mice twice at 2 weeks interval and tested for its capacity to induce an immune response against both optimized peptides and their cognate native counterparts. Dipeptides are described in table 2. In each experiment, the best combination is highlighted in grey.
To evaluate if the Vbx-016 (SEQ ID No: 23) determined in the dipeptidic experiments is optimum, HLA-B*0702 transgenic mice were vaccinated subcutaneously at the base of the tail with 400 μg of Vbx-016 and 150 μg of the HBV core T13L helper peptide emulsified in Incomplete Freund Adjuvant (IFA) or Montanide ISA51VG (Seppic, Castres, France) twice at two weeks interval.

[2] = test system: MAGE-A antigens / tumour cells; details: recognition of cells loaded with MAGE-A273A6, MAGE-A273I6, MAGE-A273V6; cited from earlier work
[3] = test system: human PBMC from healthy HLA-B*0702 donors; assay: Generation of CTL from human PBMC, IFNγ ELISpot with peptide-loaded T2-B7 cells; type: cell-based; details: for processing of the dipeptide and recognition of optimized and cognate native peptides by induced CTLs: PBMC culture from healthy human donor stimulated with dipeptide; for CTL immune response induced by the polypeptide: PBMC culture from HLA-B*0702 healthy donor
Experimental: Cells. HLA-B*0702 transfected human T2-B7 cells were previously described (Rohrlich et al, 2003). Cells were grown in penicillin streptomycin FCS 20% supplemented RPMI1640 culture medium.
Generation of CTL from human PBMC. PBMC were collected by leukapheresis from healthy HLA-B*0702 volunteers. Dendritic cells (DC) were produced from adherent cells cultured for seven days with 500 IU/ml GM-CSF and 500 IU/ml IL-4, in complete synthetic medium (AIMV). On day 6, DCs were pulsed with 10 μM of polypeptides overnight. On day 7, CD8+ cells were purified by negative selection with CD8 Dynabeads Untouched Human CD8. CD8+ cells (2×10^5)+CD8− cells (6×10^4) were stimulated with 3×10^4 peptide-pulsed DC in AIMV medium supplemented with 1000 IU/ml IL-6 and 5 IU/ml IL-12, 1 μg/ml anti-CD40 and 500 IU/ml IFNγ in round-bottomed 96-well plates.
From day 7, cultures were restimulated weekly with peptide-loaded DC in the presence of 20 IU/ml IL-2 and 10 ng/ml IL-7, 1 μg/ml anti-CD40 and 500 IU/ml IFNγ.
After the third restimulation, CD8 cells were maintained in AIMV supplemented with 20 IU/ml IL-2 during 7 days. Cultures were starved during one night with AIMV and then were tested in an IFNγ ELISpot assay.
IFNγ ELISpot Assay. For one culture of 96 wells, four pools of 24 wells were collected, CD8 cells were counted and 50 000 CD8 per well were dispatched on the ELISpot plate with 25 000 T2B7 loaded eiher with 10 μM of each native monopeptide or with 10 μM of modified monopeptides composing the polypeptide. Eight replicates of each condition were performed. Positive control was Phytohaemagglutinin A and negative control was T2B7 loaded with an irrelevant peptide not able to bind HLA-B7 molecules.
To evaluate if the junction present in the polypeptide CEA188L9/TERT444A1/MAGE273L9/HER-2/neu246A1 validated in transgenic mice are processed efficiently in humans, human PBMC were stimulated with each dipeptide (CEA188L9/TERT444A1, TERT444A1/MAGE273L9 and MAGE273L9/HER-2/neu246A1) according to the protocol described in the methods. Recognition of the cognate native peptides was evaluated by measuring specific IFNγ producing cells from the CD8+ stimulated by the dipeptide, divided in 4 pools for the test.

**Q.** For APRRLVQLLAPKHSDCLA (7T5HN3M), which “result versus the inverted dipeptide sequence, in terms of number of responding mice” value [1] is on record?
**A.** better results than the corresponding inverted sequences; also recorded: better results than the inverted sequence

**Q.** For SPRLQLSNLGPRALVETL (7C1M1M), which “result versus the inverted dipeptide sequence, in terms of number of responding mice” value [1] is on record?
**A.** the same results

**Q.** For GPRALVETL (7M1M), which “MAGE-A antigens targeted by elicited CTLs” value [2] is on record?
**A.** targeted six MAGE-A antigens (-A1, -A2, -A3, -A4, -A6, and -A12)

**Q.** Which “result versus the inverted dipeptide sequence, in terms of number of responding mice” value [1] does the source give for GPRALVETLSPRLQLSNL (7M1C1M) here?
**A.** the same results

**Q.** With SPRLQLSNLAPRRLVQLL (7C1T5M) as the sequence, how does the “result versus the inverted dipeptide sequence, in terms of number of responding mice” value [1] read?
**A.** better results than the corresponding inverted sequences; also recorded: better results than the inverted sequence

**Q.** What about the “processing of the dipeptide and recognition of optimized and cognate native peptides by induced CTLs” value (shortened to “processing”) [3] of the same sequence?
**A.** efficiently processed in vitro in humans

**Q.** For APRRLVQLLGPRALVETL (7T5M1M), which “result versus the inverted dipeptide sequence, in terms of number of responding mice” value [1] is on record?
**A.** better results than the corresponding inverted sequences; also recorded: better results than the inverted sequence

**Q.** And the “processing” value [3]?
**A.** efficiently processed in vitro in humans

**Q.** For SPRLQLSNLAPKHSDCLA (7C1HN3M), which “result versus the inverted dipeptide sequence, in terms of number of responding mice” value [1] is on record?
**A.** better results than the corresponding inverted sequences; also recorded: better results than the inverted sequence

**Q.** Which results are given for “SPRLQLSNLAPRRLVQLLGPRALVETLAPKHSDCLA [Vbx-016, polypeptide of four optimized cryptic peptides targeting TERT, HER-2/neu, MAGE and CEA for HLA-B7 patients]”?
**A.** mice responding to at least one native peptide [1]: all mice respond to at least one native peptide; recognition of each native peptide in vaccinated mice [1]: each native peptide was recognized at least once in one vaccinated mouse; mice responding to at least one native peptide ([1]; listed as SEQ ID No: 23): all mice responded to at least one native peptide; recognition of each native peptide in vaccinated mice ([1]; listed as SEQ ID No: 23): all the native peptides were recognized at least once in one vaccinated mouse; Number of responding mice/total number of mice ([1]; recognition of CEA188, Helper + adjuvant (IFA or montanide), pooled): 13/14; Number of responding mice/total number of mice ([1]; recognition of CEA188, Vbx016 + helper + IFA, two vaccinations, T-test <0.05): 8/9; Number of responding mice/total number of mice ([1]; recognition of CEA188, Vbx016 + helper + Montanide, two vaccinations, T-test <0.05): 5/5; Number of responding mice/total number of mice ([1]; recognition of CEA188L9, Helper + adjuvant (IFA or montanide), pooled): 13/14; Number of responding mice/total number of mice ([1]; recognition of CEA188L9, Vbx016 + helper + IFA): 8/9; Number of responding mice/total number of mice ([1]; recognition of CEA188L9, Vbx016 + helper + Montanide): 5/5; Number of responding mice/total number of mice ([1]; recognition of HER-2Neu246, Helper + adjuvant (IFA or montanide), pooled): 1/14; Number of responding mice/total number of mice ([1]; recognition of HER-2Neu246, Vbx016 + helper + IFA): 1/9; Number of responding mice/total number of mice ([1]; recognition of HER-2Neu246, Vbx016 + helper + Montanide): 0/5; Number of responding mice/total number of mice ([1]; recognition of HER-2Neu246A1, Helper + adjuvant (IFA or montanide), pooled): 2/14; Number of responding mice/total number of mice ([1]; recognition of HER-2Neu246A1, Vbx016 + helper + IFA): 2/9; Number of responding mice/total number of mice ([1]; recognition of HER-2Neu246A1, Vbx016 + helper + Montanide): 0/5; Number of responding mice/total number of mice ([1]; recognition of MageA273A6, Helper + adjuvant (IFA or montanide), pooled): 2/14; Number of responding mice/total number of mice ([1]; recognition of MageA273A6, Vbx016 + helper + IFA): 2/9; Number of responding mice/total number of mice ([1]; recognition of MageA273A6, Vbx016 + helper + Montanide): 0/5; Number of responding mice/total number of mice ([1]; recognition of MageA273I6, Helper + adjuvant (IFA or montanide), pooled): 3/14; Number of responding mice/total number of mice ([1]; recognition of MageA273I6, Vbx016 + helper + IFA): 1/9; Number of responding mice/total number of mice ([1]; recognition of MageA273I6, Vbx016 + helper + Montanide): 2/5; Number of responding mice/total number of mice ([1]; recognition of MageA273L9, Helper + adjuvant (IFA or montanide), pooled): 12/14; Number of responding mice/total number of mice ([1]; recognition of MageA273L9, Vbx016 + helper + IFA): 7/9; Number of responding mice/total number of mice ([1]; recognition of MageA273L9, Vbx016 + helper + Montanide): 5/5; Number of responding mice/total number of mice ([1]; recognition of MageA273V6, Helper + adjuvant (IFA or montanide), pooled): 2/14; Number of responding mice/total number of mice ([1]; recognition of MageA273V6, Vbx016 + helper + IFA): 1/9; Number of responding mice/total number of mice ([1]; recognition of MageA273V6, Vbx016 + helper + Montanide): 1/5; Number of responding mice/total number of mice ([1]; recognition of Tert444, Helper + adjuvant (IFA or montanide), pooled): 12/14; Number of responding mice/total number of mice ([1]; recognition of Tert444, Vbx016 + helper + IFA): 8/9; Number of responding mice/total number of mice ([1]; recognition of Tert444, Vbx016 + helper + Montanide): 4/5; Number of responding mice/total number of mice ([1]; recognition of Tert444A1, Helper + adjuvant (IFA or montanide), pooled): 14/14; Number of responding mice/total number of mice ([1]; recognition of Tert444A1, Vbx016 + helper + IFA): 9/9; Number of responding mice/total number of mice ([1]; recognition of Tert444A1, Vbx016 + helper + Montanide): 5/5; Number of responding mice/total number of mice ([1]; recognition of Vbx-016, Helper + adjuvant (IFA or montanide), pooled): 14/14; Number of responding mice/total number of mice ([1]; recognition of Vbx-016, Vbx016 + helper + IFA): 9/9; Number of responding mice/total number of mice ([1]; recognition of Vbx-016, Vbx016 + helper + Montanide): 4/4; Number of responding mice/total number of mice ([1]; response to two or more native epitopes, Helper + adjuvant (IFA or montanide), pooled, listed as SEQ ID No: 23): a large majority of vaccinated mice responded to two or more cognate native peptides; Number of responding mice/total number of mice ([1]; response to two or more native epitopes, Vbx016 + helper + IFA): 8/9; Number of responding mice/total number of mice ([1]; response to two or more native epitopes, Vbx016 + helper + Montanide): 5/5; Number of responding mice/total number of mice ([1]; response to two or more native epitopes, column Helper + adjuvant (IFA or montanide), pooled): 13/14; Number of responding mice/total number of mice ([1]; response to two or more native epitopes, column Helper + adjuvant (IFA or montanide), pooled, listed as Vbx016): 13/14; CTL immune response induced by the polypeptide [3]: A polyspecific response was induced and several native peptides were recognized by the induced CTLs; CTL immune response induced by the polypeptide ([3]; listed as SEQ ID No: 23): polyspecific CTLs immune response; also recorded: several native peptides were recognized; also recorded: induces a specific CD8^+ T cells response against at least one and usually two or more peptides

**Q.** For GPRALVETLAPKHSDCLA (7M1HN3M), which “result versus the inverted dipeptide sequence, in terms of number of responding mice” value [1] is on record?
**A.** better results than the corresponding inverted sequences; also recorded: better results than the inverted sequence

**Q.** And the “processing” value [3]?
**A.** efficiently processed in vitro in humans
